Test results published in patent publication US20070098735A1, “Methods for the Elimination of Pathogens and Other Particulate Agents” (priority 2005, published 2007).

Legend:
[1] = system: CD4+ T cells purified from spleens of DO 11.10 mice (IFN-γ); assay: IFN-γ release by CD4+ T cells (ELISA); assay type: cell-based; conditions: compared to ova-coated yeast alone or HSP70 given alone
Procedure: Proliferation of CD4+ T cells and INF-γ (interferon gamma) release. Unlabeled S. cerevisiae (80 μg) was incubated with excess chicken ovary albumin (OVA) at 37° C. for 1 hour and washed repeatedly to eliminate free OVA protein. S. cerevisiae-OVA complexes (OVA-coated yeast) were administered to macrophages treated with or without HSP70. Macrophages were then washed and irradiated at 12,000 rads and assessed for viability by trypan blue exclusion. Subsequently, they were co-cultured with CD4+ T lymphocytes that were purified from spleens of DO 11.10 mice and labeled with carboxyfluoroscein succinimidyl ester (CSFE). […] Following the 48-hour incubation, proliferation of CD4+ cells was determined with FACS and IFN-γ release in the supernatant was tested by enzyme-linked immunosorbent assay (ELISA; Pierce, Ill.).
Alexafluor labeled S. cerevisiae were coated with whole ovalbumin (OVA) protein 1 mg/ml by co-incubation at 37° C. for 20 minutes and washed until free OVA protein was removed (washes were tested by gel electrophoresis using SDS-PAGE and immunoblotting). […] Resultant proliferation of the CSFE-labeled CD4+ was measured by FACS as an indirect measure of the amount of OVA protein processed and its peptide epitope presented in context of MHC-II. […]

[2] = system: full thickness surgical wounds on the dorsum of BALB/cJ mice; assay: Closure of full thickness surgical wounds, percent wound closure; assay type: in vivo
Procedure: Surgery and Treatment. Mice were anesthetized using Ketamine (2.0 mg/mouse) and Xylazine (0.1 mg/mouse) were administered intraperitoneally (IP) and the dorsal skin was shaved. After sterile prepping of the area, a full thickness circular wound, 8 mm diameter, was made on the dorsal skin using a disposable biopsy punch (Miltex Inc, York, Pa.) on the midline of the dorsum approximately at the iliac crest. The mice were then randomly assigned into the treatment groups. Initial wound measurements were performed while the mice were still anesthetized. Mice were then treated on days 0, 2, 4, and 6 unless otherwise specified. All agents used as treatment were diluted in 0.5 ml of PBS and injected using a 25-gauge needle in the subcutaneous space in the nape of the neck. The surgical procedures, post-operative monitoring, and safety concerns were approved by the Institutional Animal Care and Usage Committee.
Measurements and Analysis. Wound healing of open wounds is a complex process with many parameters to consider. […] The wound surface area was determined by measuring the craniocaudal and lateromedial distances using vernier calipers in perpendicular axis on days 0, 2, 4, 6, 9, and 11 postoperatively unless noted. Changes in wound area were expressed as percent wound closure. Wound closure data was plotted as average percent wound closure ±SEM unless otherwise noted. All calculations and data analysis were performed using Microsoft Excel and Sigma Plot. Sigma Plot was used to perform Student's t-tests for reported P values.
Full thickness surgical wounds were created on the dorsum of BALB/cJ mice as described in Methods. Wounds were made on day 0. Subsequently, the wounds were treated with exogenous injections of HSP70, HSP90, gp96 (30 μg/dose) or buffer administered subcutaneously (SC) on days 0, 2, 4 and 6 following surgery (FIG. 6A). The wounds were measured on days 0, 2, 4, 6, 9, 11 unless otherwise noted. Wounds were measured serially, percent wound closure was calculated and plotted against time in order to quantitate the rate of healing by secondary intention. […] Data is plotted as average percent wound closure ±SEM on days indicated. Two mice from each treatment group (PBS (n=12), HSP70 (n=11), HSP90 (n=12), and gp96 (n=11)) were sacrificed for histology on days 2, 4, and 6 post-surgery (data not shown). The P values obtain using the Student's t-test.
Results are of average percent wound closure ±SEM on day 2 post surgery. The *P values were obtained using the Student's t-test by comparing HSP treatment to all of the non-HSP control treatments. The least significant P value was reported. […] Doses higher than 50 μg/dose were not tested.

[3] = system: RAW 264.7 macrophages; assay: In vitro macrophage phagocytosis of wound debris; assay type: cell-based, murine; conditions: RAW264.7, labeled wound debris, 37° C.
[4] = system: macrophages

Question: Which results are given for “HSP70: heat shock protein purified from murine livers, prepared as a complex with endogenous peptide”?
Answer: IFN-γ production by CD4+ cells [1]: increase in their ability to produce IFN-γ; wound closure compared to controls ([2]; 5 μg/dose and 50 μg/dose, day 2): significant wound closure; wound healing at Day 11 ([2]; 30 μg/dose SC on days 0, 2, 4 and 6): completely healed; dose with the most significant difference in wound closure ([2]; doses 5, 30, 50 μg/dose tested): 30 μg/dose; increase in phagocytosed wound debris compared to controls [3]: 25%; cytotoxicity of HSP-treatment (trypan blue exclusion) [4]: not cytotoxic
